# Legend:
# Type in all cases: functional
# Staphylococcus aureus [1] = assay: Antimicrobial activity against methicillin-resistant Staphylococcus aureus Chaoyang clinical isolate after 16 hrs by broth microdilution method
# Staphylococcus aureus [2] = assay: Antimicrobial activity against Staphylococcus aureus ATCC 6538 after 16 hrs by broth microdilution method; conditions: ATCC 6538, 16 h
# Bacillus spizizenii = assay: Antimicrobial activity against Bacillus subtilis ATCC 6633 after 16 hrs by broth microdilution method; conditions: ATCC 6633, 16 h
# Enterococcus faecalis [3] = assay: Antimicrobial activity against vancomycin-susceptible Enterococcus faecalis after 16 hrs by broth microdilution method
# Enterococcus faecalis [4] = assay: Antimicrobial activity against Enterococcus faecalis VRE-309 after 16 hrs by broth microdilution method; conditions: VRE-309, 16 h
# Pseudomonas aeruginosa = assay: Antimicrobial activity against Pseudomonas aeruginosa PAO1 after 16 hrs by broth microdilution method; conditions: PAO1, 16 h
# Klebsiella pneumoniae = assay: Antimicrobial activity against Klebsiella pneumoniae KP-249 clinical isolate after 16 hrs by broth microdilution method; conditions: KP-249, 16 h
# Staphylococcus aureus [5] = assay: Antimicrobial activity against methicillin-resistant Staphylococcus aureus 309-4 clinical isolate after 16 hrs by broth microdilution method; conditions: 309-4, 16 h
# Staphylococcus aureus [6] = assay: Antimicrobial activity against methicillin-resistant Staphylococcus aureus 6281 clinical isolate after 16 hrs by broth microdilution method; conditions: Staphylococcus aureus, 6281, 16 h
# Staphylococcus aureus [7] = assay: Antimicrobial activity against methicillin-resistant Staphylococcus aureus 309-8 clinical isolate after 16 hrs by broth microdilution method; conditions: 309-8, 16 h
# Staphylococcus aureus [8] = assay: Antimicrobial activity against methicillin-resistant Staphylococcus aureus 6-42 clinical isolate after 16 hrs by broth microdilution method; conditions: 6-42, 16 h
# Staphylococcus aureus [9] = assay: Antimicrobial activity against methicillin-resistant Staphylococcus aureus 8-21 clinical isolate after 16 hrs by broth microdilution method; conditions: 8-21, 16 h
# Staphylococcus aureus [10] = assay: Antimicrobial activity against methicillin-resistant Staphylococcus aureus 309-3 clinical isolate after 16 hrs by broth microdilution method; conditions: 309-3, 16 h
# Staphylococcus aureus [11] = assay: Antimicrobial activity against methicillin-resistant Staphylococcus aureus 309-1 clinical isolate after 16 hrs by broth microdilution method; conditions: 309-1, 16 h
# Staphylococcus aureus [12] = assay: Antimicrobial activity against methicillin-resistant Staphylococcus aureus 309-7 clinical isolate after 16 hrs by broth microdilution method; conditions: 309-7, 16 h
# Staphylococcus aureus [13] = assay: Antimicrobial activity against methicillin-resistant Staphylococcus aureus 8-24 clinical isolate after 16 hrs by broth microdilution method; conditions: 8-24, 16 h
# Staphylococcus aureus [14] = assay: Antimicrobial activity against methicillin-resistant Staphylococcus aureus 309-6 clinical isolate after 16 hrs by broth microdilution method; conditions: 309-6, 16 h
SMILES,MIC (Staphylococcus aureus [1]) [µg/mL],MIC (Staphylococcus aureus [2]) [µg/mL],MIC (Bacillus spizizenii) [µg/mL],MIC (Enterococcus faecalis [3]) [µg/mL],MIC (Enterococcus faecalis [4]) [µg/mL],MIC (Pseudomonas aeruginosa) [µg/mL],MIC (Klebsiella pneumoniae) [µg/mL],MIC (Staphylococcus aureus [5]) [µg/mL],MIC (Staphylococcus aureus [6]) [µg/mL],MIC (Staphylococcus aureus [7]) [µg/mL],MIC (Staphylococcus aureus [8]) [µg/mL],MIC (Staphylococcus aureus [9]) [µg/mL],MIC (Staphylococcus aureus [10]) [µg/mL],MIC (Staphylococcus aureus [11]) [µg/mL],MIC (Staphylococcus aureus [12]) [µg/mL],MIC (Staphylococcus aureus [13]) [µg/mL],MIC (Staphylococcus aureus [14]) [µg/mL]
COc1cccc(NC(=S)N/N=C2\C(=O)Nc3c(F)cccc32)c1,1.56,3.12,1.56,> 100,> 100,> 100,> 100,1.56,3.12,1.56,1.56,1.56,1.56,1.56,1.56,3.12,3.12
Cc1ccc(NC(=S)N/N=C2\C(=O)Nc3c(Br)cccc32)cc1,0.39,1.56,≤ 0.78,> 100,> 100,> 100,> 100,0.78,3.12,0.78,0.78,0.78,0.78,0.78,0.78,1.56,1.56
Cc1ccccc1NC(=S)N/N=C1\C(=O)Nc2c(Br)cccc21,0.78,1.56,≤ 0.78,12.5,6.25,> 100,> 100,1.56,3.12,1.56,0.78,1.56,1.56,1.56,0.78,1.56,1.56
COc1cccc(NC(=S)N/N=C2\C(=O)Nc3c(Br)cccc32)c1,0.78,6.25,≤ 0.78,> 100,> 100,> 100,> 100,1.56,6.25,3.12,1.56,1.56,3.12,1.56,0.78,1.56,6.25
O=C1Nc2c(Cl)cccc2/C1=N/NC(=S)Nc1cccc(Cl)c1,0.78,1.56,≤ 0.78,3.12,1.56,> 100,> 100,0.78,1.56,1.56,0.78,1.56,1.56,1.56,0.78,1.56,3.12
COc1cccc(NC(=S)N/N=C2\C(=O)Nc3c(Cl)cccc32)c1,0.78,3.12,≤ 0.78,> 100,> 100,> 100,> 100,0.78,6.25,1.56,0.78,1.56,1.56,1.56,0.78,1.56,3.12
O=C1Nc2c(F)cccc2/C1=N/NC(=S)Nc1cccc(Cl)c1,0.39,0.78,≤ 0.78,1.56,1.56,> 100,> 100,0.78,1.56,0.78,0.39,0.78,0.78,0.78,0.39,0.78,1.56

# From ChEMBL document CHEMBL3611970, “Synthesis and evaluation of isatin-β-thiosemicarbazones as novel agents against antibiotic-resistant Gram-positive bacterial species” (2015)
